Assay results as given in publication PMC8296573, “Synthesis and Biological Evaluation of Fingolimod Derivatives as Antibacterial Agents” (ACS Omega, 2021).
≈ marks a conversion by molar mass, not a printed value. Read-outs that look alike come from different tables or passages of the source.

How the values were obtained:
A. baumannii NCTC 13423 = experiment: Antibacterial activity, pre-exposure; assay type: cell-based, Acinetobacter baumannii; conditions: for Average inhibition %, biofilms viability / Average inhibition %, planktonic cells viability / inhibition at 10 µM / inhibition at 15 µM / inhibition at 25 µM / inhibition at 50 µM: A. baumannii NCTC 13423, pre-exposure, ± SD; for inhibition at 10 µM / inhibition at 15 µM / inhibition at 25 µM / inhibition at 50 µM / MIC: Acinetobacter baumannii, NCTC13423
In short: (§1)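 Growth prevention was tested by adding compounds together with the inoculum. Plates were incubated 18 h at 37 °C. Viability was read by resazurin fluorescence and biomass by crystal violet absorbance at 595 nm.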

S. aureus ATCC 25923 [1] = experiment: Antibacterial activity, post-exposure on preformed 18-h-old biofilms; assay type: cell-based, Staphylococcus aureus; conditions: ± SD; for inhibition at 25 µM / inhibition at 50 µM / inhibition at 100 µM / inhibition at 200 µM: Staphylococcus aureus; for inhibition at 25 µM: ATCC25923, 25 µM; for inhibition at 50 µM: ATCC25923, 50 µM; for inhibition at 100 µM: ATCC25923, 100 µM; for inhibition at 200 µM: ATCC25923, 200 µM
In short: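 Biofilms grown 18 h without compound, medium then replaced and compound added for a further 24 h. Planktonic OD and resazurin (20 μM final) fluorescence (ex 560/em 590 nm) read; washed biofilms stained with 20 μM resazurin 30 min at 37 °C, then ethanol-fixed and crystal violet-stained, absorbance 595 nm.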

P. aeruginosa ATCC 9027 = experiment: Antibacterial activity, pre-exposure; assay type: cell-based, Pseudomonas aeruginosa; conditions: for Average inhibition %, biofilms viability / Average inhibition %, planktonic cells viability / inhibition at 50 µM / inhibition at 100 µM / inhibition at 150 µM / inhibition at 200 µM: P. aeruginosa ATCC 9027, pre-exposure, ± SD; for inhibition at 50 µM / inhibition at 100 µM / inhibition at 150 µM / inhibition at 200 µM: Pseudomonas aeruginosa, ATCC9027
In short: as §1

S. aureus ATCC 25923 [2] = experiment: Antibacterial activity, pre-exposure (planktonic cells and biofilm formation); assay type: cell-based, Staphylococcus aureus; conditions: for MIC / inhibition at 5 µM / inhibition at 10 µM / inhibition at 15 µM / inhibition at 25 µM: Staphylococcus aureus, ATCC25923; for inhibition at 5 µM / inhibition at 10 µM / inhibition at 15 µM / inhibition at 25 µM / Average inhibition %, biofilms viability / Average inhibition %, planktonic cells viability: pre-exposure, ± SD
In short: as §1

[3] = 10 µM, read-out: Average inhibition %, biofilms biomass
[4] = 10 µM, read-out: Average inhibition %, planktonic cells turbidity
[5] = 15 µM, read-out: Average inhibition %, biofilms biomass
[6] = 15 µM, read-out: Average inhibition %, planktonic cells turbidity
[7] = 25 µM, read-out: Average inhibition %, biofilms biomass
[8] = 25 µM, read-out: Average inhibition %, planktonic cells turbidity
[9] = 50 µM, read-out: Average inhibition %, biofilms biomass
[10] = 50 µM, read-out: Average inhibition %, planktonic cells turbidity
[11] = read-out: Average inhibition %, biofilms biomass
[12] = read-out: Average inhibition %, planktonic cells turbidity

## CCCCCC/C=C/c1ccc(CCC(N)(CO)CO)cc1 [Compound 42, (E)-2-Amino-2-[4-(oct-1-en-1-yl)phenethyl]propane-1,3-diol]
A. baumannii NCTC 13423; 10 µM
  Average inhibition %, biofilms viability: 0.4 ± 0.3%
  Average inhibition %, planktonic cells viability: 13.5 ± 3.1%
A. baumannii NCTC 13423; 15 µM
  Average inhibition %, biofilms viability: 12.8 ± 7.2%
  Average inhibition %, planktonic cells viability: 6 ± 6.6%
A. baumannii NCTC 13423; 25 µM
  Average inhibition %, biofilms viability: 47.6 ± 37.1%
  Average inhibition %, planktonic cells viability: 33.1 ± 52.5%
A. baumannii NCTC 13423; 50 µM
  Average inhibition %, biofilms viability: 87.7 ± 9.8%
  Average inhibition %, planktonic cells viability: 81 ± 27.7%
A. baumannii NCTC 13423; [3]
  inhibition at 10 µM: 2.4 ± 4.3%
A. baumannii NCTC 13423; [4]
  inhibition at 10 µM: 0%
A. baumannii NCTC 13423; [5]
  inhibition at 15 µM: 6.2 ± 6%
A. baumannii NCTC 13423; [6]
  inhibition at 15 µM: 0.6 ± 1%
A. baumannii NCTC 13423; [7]
  inhibition at 25 µM: 18.2 ± 21.6%
A. baumannii NCTC 13423; [8]
  inhibition at 25 µM: 40.8 ± 42.7%
A. baumannii NCTC 13423; [9]
  inhibition at 50 µM: 67.2 ± 13.9%
A. baumannii NCTC 13423; [10]
  inhibition at 50 µM: 83.1 ± 17.5%
A. baumannii NCTC 13423; pre-exposure, Inactive = no activity up to 50 μM, > = some inhibition but no MIC reached, read-out: MIC A. baumannii NCTC 13423
  MIC: > 50 µM
A. baumannii NCTC 13423; supplementary molecular formula strings sheet, read-out: MIC (A. baumannii)
  MIC: > 50 µM
S. aureus ATCC 25923 [1]; 25 µM
  Average inhibition %, biofilms viability: 20 ± 6.1%
  Average inhibition %, planktonic cells viability: 2.8 ± 5%
S. aureus ATCC 25923 [1]; 50 µM
  Average inhibition %, biofilms viability: 42 ± 16%
  Average inhibition %, planktonic cells viability: 19.1 ± 18.9%
S. aureus ATCC 25923 [1]; 100 µM
  Average inhibition %, biofilms viability: 48.3 ± 2.3%
  Average inhibition %, planktonic cells viability: 68.7 ± 18.2%
S. aureus ATCC 25923 [1]; 200 µM
  Average inhibition %, biofilms viability: 44.8 ± 10.4%
  Average inhibition %, planktonic cells viability: 35.1 ± 44.8%
S. aureus ATCC 25923 [1]; [11]
  inhibition at 25 µM: 39 ± 2.5%
  inhibition at 50 µM: 54.1 ± 1.9%
  inhibition at 100 µM: 54.8 ± 5.9%
  inhibition at 200 µM: 59.8 ± 21%
S. aureus ATCC 25923 [1]; [12]
  inhibition at 25 µM: 12 ± 9.6%
  inhibition at 50 µM: 29.7 ± 16.3%
  inhibition at 100 µM: 56.9 ± 19.5%
  inhibition at 200 µM: 46.2 ± 27.3%
P. aeruginosa ATCC 9027; 50 µM
  Average inhibition %, biofilms viability: 3.9 ± 6.8%
  Average inhibition %, planktonic cells viability: 24.8 ± 10.1%
P. aeruginosa ATCC 9027; 100 µM
  Average inhibition %, biofilms viability: 1.5 ± 2.6%
  Average inhibition %, planktonic cells viability: 15.1 ± 18%
P. aeruginosa ATCC 9027; 150 µM
  Average inhibition %, biofilms viability: 0.9 ± 1.7%
  Average inhibition %, planktonic cells viability: 18.9 ± 31%
P. aeruginosa ATCC 9027; 200 µM
  Average inhibition %, biofilms viability: 0 ± 0%
  Average inhibition %, planktonic cells viability: 27 ± 45%
P. aeruginosa ATCC 9027; [9]
  inhibition at 50 µM: 30.1 ± 8.8%
P. aeruginosa ATCC 9027; [10]
  inhibition at 50 µM: 16.3 ± 5.3%
P. aeruginosa ATCC 9027; 100 µM, read-out: Average inhibition %, biofilms biomass
  inhibition at 100 µM: 30.3 ± 0.8%
P. aeruginosa ATCC 9027; 100 µM, read-out: Average inhibition %, planktonic cells turbidity
  inhibition at 100 µM: 37.1 ± 13.5%
P. aeruginosa ATCC 9027; 150 µM, read-out: Average inhibition %, biofilms biomass
  inhibition at 150 µM: 27.7 ± 2.1%
P. aeruginosa ATCC 9027; 150 µM, read-out: Average inhibition %, planktonic cells turbidity
  inhibition at 150 µM: 45.1 ± 17.4%
P. aeruginosa ATCC 9027; 200 µM, read-out: Average inhibition %, biofilms biomass
  inhibition at 200 µM: 36.2 ± 10.3%
P. aeruginosa ATCC 9027; 200 µM, read-out: Average inhibition %, planktonic cells turbidity
  inhibition at 200 µM: 53.5 ± 14.1%
P. aeruginosa ATCC 9027; pre-exposure, Inactive = no activity up to 200 μM, > = some inhibition but no MIC reached
  MIC P. aeruginosa ATCC 9027: Inactive
S. aureus ATCC 25923 [2]; lowest concentration with no visible growth (>90% inhibition of turbidity and viability of planktonic cells), 18 h, read-out: MIC S. aureus ATCC 25923
  MIC: 15 to 25 µM (≈ 4.58 to 7.64 µg/mL)
S. aureus ATCC 25923 [2]; 5 µM, read-out: Average inhibition %, biofilms biomass
  inhibition at 5 µM: 41 ± 12.1%
S. aureus ATCC 25923 [2]; 5 µM, read-out: Average inhibition %, planktonic cells turbidity
  inhibition at 5 µM: 18.8 ± 12.6%
S. aureus ATCC 25923 [2]; [3]
  inhibition at 10 µM: 62.5 ± 24.1%
S. aureus ATCC 25923 [2]; [4]
  inhibition at 10 µM: 53.3 ± 32.3%
S. aureus ATCC 25923 [2]; [5]
  inhibition at 15 µM: 80.5 ± 26.4%
S. aureus ATCC 25923 [2]; [6]
  inhibition at 15 µM: 84.6 ± 26.1%
S. aureus ATCC 25923 [2]; [7]
  inhibition at 25 µM: 95.1 ± 0.5%
S. aureus ATCC 25923 [2]; [8]
  inhibition at 25 µM: 99.4 ± 0.5%
S. aureus ATCC 25923 [2]; read-out: MIC (S. aureus)
  MIC: 15 to 25 µM (≈ 4.58 to 7.64 µg/mL)
S. aureus ATCC 25923 [2]; 5 µM
  Average inhibition %, biofilms viability: 16.3 ± 4.8%
  Average inhibition %, planktonic cells viability: 1.7 ± 3%
S. aureus ATCC 25923 [2]; 10 µM
  Average inhibition %, biofilms viability: 55.9 ± 31%
  Average inhibition %, planktonic cells viability: 31.6 ± 54.9%
S. aureus ATCC 25923 [2]; 15 µM
  Average inhibition %, biofilms viability: 81.1 ± 32.3%
  Average inhibition %, planktonic cells viability: 66.4 ± 57.5%
S. aureus ATCC 25923 [2]; 25 µM
  Average inhibition %, biofilms viability: 99.2 ± 0.8%
  Average inhibition %, planktonic cells viability: 99.6 ± 0.2%
